Patent publication US10912752B2, “Methods and compositions for reducing ocular discomfort” (Brien Holden Vision Institute Limited, priority 2012, dated 2021)
Entries after “also recorded” stand apart in the source; their conditions may differ.

Assays:
HCLE cells = assay: MTT cell viability, titration of osmolyte concentration in isotonic medium; assay type: cell-based, human
Protocol: An immortalized human corneal limbal epithelial (HCLE) cell line (a kind gift from Ilene Gipson, Schepens Eye Research Institute, Boston, Mass.) was used in the study. HCLE cells were cultured as previously described (Garrett et al. Invest Ophthalmol Vis Sci 2008; 49:4844-4849). Briefly, the cells were maintained on plastic at 2×10^4/cm^2 in a keratinocyte serum-free medium (K-SFM; Invitrogen-Gibco, Grand Island, N.Y.), supplemented with 25 μg/mL bovine pituitary extract, 0.2 ng/mL epidermal growth factor (EGF; Invitrogen, Mount Waverley, VIC, Australia), and 0.4 mM CaCl2 and were grown at 37° C. in a 5% carbon dioxide atmosphere. To enhance nutrient composition, the cultures were switched at approximately 50% confluence to a 1:1 mixture of K-SFM and low calcium DMEM/F12 (Invitrogen), to achieve confluence. All the experiments involving the culture of HCLE cells were performed at 37° C. in a 5% carbon dioxide atmosphere unless otherwise indicated.
To determine the optimal concentration of betaine for use in the osmoprotective studies, betaine (Sigma-Aldrich, St. Louis, Mo.; 1.0-200 mM) was prepared in culture medium. […] Following treatment with betaine, cell viability was assessed using the 3-[4,5-dimethylthiazol-2-yl]-2,5-diphenyltetr azoliumbromide (MTT) cell survival assays (Promega, Madison, Wis.).

caspase-9 = assay: Caspase-Glo luminescent caspase activity in HCLE under hyperosmotic stress; assay type: cell-based, human; settings: 16 h
Protocol: (§1) Caspase-3/7, -8 and -9 activities were assayed using a luminescent assay kit (Promega, Madison, Wis.) according to the manufacturer's instructions. Briefly, 100 μL of Caspase-Glo-3/7, -8 and -9 reagents were added to HCLE at maintained on plastic at 2×10^4/cm^2, mixed and incubated for one hour at room temperature. Luminescence was measured using a SpectraFluor Plus microplate reader.
(§2) […] Induction of apoptosis was detected by quantification of the proteolytic activity of caspase-8, caspase-9, or caspase-3/7 using caspase activity assays, and production of tumor necrosis factor (TNF)-α, a known apoptosis inducer, using ELISA. Annexin V and Propidium iodine (PI) staining was performed to detect the percentage of apoptotic cells using confocal microscopy and flow cytometry.

caspase-3/7 = assay: as above; assay type: cell-based, human; settings: 16 h
Protocol: as §1, §2

TNF-α [1] = assay: qRT-PCR of mouse conjunctiva, ICES dry eye model; assay type: in vivo, C57BL/6 mice; settings: normalized to GAPDH; for mRNA expression of TNF-α vs PBS treatment group: Schedule 1, Day 21, conjunctiva
From the text: (§3) For Schedule 1, six (6×) mice per each group at the end of Day 21 and five (5×) mice from each group at the end of Day 35 post-housing in ICES and undergoing the treatment were sacrificed with an overdose of a mixture of ketamine and xylazine for qRT-PCR evaluation of […] inflammatory responses. On the other hand, for Schedule 2, three (3×) mice were sacrificed at the end of Day 21, and all the other mice were sacrificed at the end of Day 35 post-housing in ICES and undergoing the treatment. Additionally, seven healthy animals which were not housed in ICES and received no treatment were euthanized as healthy controls for comparison.
(§4) For qRT-PCR detection of IL-1β, IL-6, IL-17, TNF-α, and GAPDH, total RNA from conjunctivas (2 eyes/group/schedule) were extracted and pooled from each of the five experimental groups using the RNA isolation kit according to the manufacturer's instructions (PicoPure RNA isolation kit, 40 isolations, Arcturus). cDNA was synthesized from 1-μg of total RNA using random primer and M-MuLV reverse transcriptase. The primer sequences for qRT-PCR detection of these mediators have been designed in preparation for qRT-PCR work (Table 1).
(§5) Expression of IL-1β, IL-6, IL-17, or TNF-α detected at mRNA level from Real-time PCR were normalized to that of the housekeeping gene GAPDH. Total RNA were collected from the pooled conjunctiva from 2 eyes of each group (total 6× eyes per each treatment group were used for qRT-PCR).

IL-1β = assay: qRT-PCR of mouse conjunctiva, ICES dry eye model; assay type: in vivo, C57BL/6 mice; settings: normalized to GAPDH; for mRNA expression of IL-1β vs PBS treatment group: Schedule 1, Day 21, conjunctiva
From the text: as §3, §4, §5

IL-6 = assay: qRT-PCR of mouse conjunctiva, ICES dry eye model; assay type: in vivo, C57BL/6 mice; settings: normalized to GAPDH; for mRNA expression of IL-6 vs PBS treatment group: Schedule 1, Day 21, conjunctiva
From the text: as §3, §4, §5

IL-17 = assay: qRT-PCR of mouse conjunctiva, ICES dry eye model; assay type: in vivo, C57BL/6 mice; settings: normalized to GAPDH; for mRNA expression of IL-17 vs PBS treatment group: Schedule 1, Day 21, conjunctiva
From the text: as §3, §4, §5

TNF-α [2] = assay: TNF-α production by HCLE cells in hyperosmolar medium (ELISA); assay type: cell-based, human; settings: 10 mM, 500 mOsm, 16 h, vs hyperosmolar medium without osmolyte
Protocol: Enzyme-linked immunosorbent assay (ELISA) was used to quantify TNF-α. The culture supernatants were collected, centrifuged at 1500 rpm for 10 min to remove cellular debris and stored at −80° C. until processed. Assays were performed according to manufacturer's protocol (R&D Systems, Minneapolis, Minn.).
Cultured human corneal limbal epithelial (HCLE) cells were exposed to culture medium with or without carnitine (10 mM) at 300 mOsm (isotonic), 450 mOsm (moderate), and 500 mOsm (hyperosmotic) for 16 h. Induction of apoptosis was detected by quantification of the proteolytic activity of caspase-8, caspase-9, or caspase-3/7 using caspase activity assays, and production of tumor necrosis factor (TNF)-α, a known apoptosis inducer, using ELISA. Annexin V and Propidium iodine (PI) staining was performed to detect the percentage of apoptotic cells using confocal microscopy and flow cytometry.

[3] = Schedule 2, Day 35, conjunctiva

SMILES: C[N+](C)(C)CC(O)CC(=O)[O-] (stereo not drawn) [carnitine, 3-hydroxy-4-(trimethylazaniumyl)butanoate]
- concentration optimal to carry out osmoprotective studies (cell viability analysis) (HCLE cells; toxicity of various concentrations): 10000 µM
- reduction in cellular caspase-9 activities (caspase-9; 10 mM, 500 mOsm): 33%
- change in Caspase-9 activity (in words) (caspase-9; 10 mM, hypertonic medium): significant lowering
- decreasing trend for caspase-3/7 activities (caspase-3/7; 10 mM, 500 mOsm): 20%
- change in Caspase-3/7 activity (in words) (caspase-3/7; 10 mM, hypertonic medium): significant lowering
- mRNA expression of TNF-α vs PBS treatment group (TNF-α [1]; listed as B): statistically significant reduction; also recorded: lowest expression level
- mRNA expression of IL-1β vs PBS treatment group (IL-1β; listed as B): statistically significant reduction; also recorded: lowest expression level
- mRNA expression of IL-1β vs PBS control (C) (IL-1β; [3]): statistically significant reduction
- mRNA expression of IL-6 vs PBS treatment group (IL-6; listed as B): statistically significant reduction; also recorded: lowest expression level
- mRNA expression of IL-6 vs PBS control (C) (IL-6; [3]): statistically significant reduction
- mRNA expression of IL-17 vs PBS treatment group (IL-17; listed as B): statistically significant reduction; also recorded: lowest expression level
- mRNA expression of IL-17 vs PBS control (C) (IL-17; [3]): statistically significant reduction
- reduction in TNF-α levels (TNF-α [2]): 25%

SMILES: C[N+](C)(C)CC(=O)[O-] [betaine, trimethylglycine]
- betaine concentration not toxic to the cells (HCLE cells; titration 0-200 mM, 300 mOsm medium, 16 h, MTT): up to 40 mM
- reduction of caspase-9 activity (caspase-9; 5 mM, 500 mOsm): 2- to 3 fold
- reduction of caspase-9 activity (caspase-9; 10 mM, 500 mOsm): 4- to 5.2 fold
- reduction of caspase-3/7 activity (caspase-3/7; 5 mM, 500 mOsm): 2- to 3 fold
- reduction of caspase-3/7 activity (caspase-3/7; 10 mM, 500 mOsm): 4- to 5.2 fold
- mRNA expression of TNF-α vs PBS treatment group (TNF-α [1]): statistically significant reduction
- mRNA expression of TNF-α vs PBS control (C) (TNF-α [1]; [3]): statistically significant reduction
- mRNA expression of IL-1β vs PBS treatment group (IL-1β): statistically significant reduction
- mRNA expression of IL-6 vs PBS treatment group (IL-6): statistically significant reduction
- mRNA expression of IL-17 vs PBS treatment group (IL-17): statistically significant reduction
- reduction in TNF-α levels (TNF-α [2]): 40%
